Experimental data from patent publication US9402831B2, “Combination therapy of HSP90 inhibitors with BRAF inhibitors” (Synta Pharmaceuticals Corp., priority 2011, dated 2016).

Experiments:
RPMI-7951 melanoma cells [1] = assay: Western blotting, RPMI-7951 cells; type: cell-based, human; details: western blot, FIG. 5
Procedure: (§1) Human melanoma cell lines carrying the V600E BRAF mutation (A375, SK-MEL-28, RPMI-7951) and human prostate cancer cells (LNCaP, 22Rv1) were purchased from the American Type Culture Collection (Manassas, Va.) and grown following ATCC recommendations, in the presence of fetal bovine serum (10%), 2 mM L-glutamine and antibiotics (100 IU/ml penicillin and 100 μg/ml streptomycin) purchased from Sigma Aldrich. Cells were maintained at 37° C., 5% CO2 atmosphere.
(§2) Cells, treated with compound for 24 hr, were lysed in RIPA buffer (CST, Danvers, Mass., USA) on ice and clarified by centrifugation. Equal amounts of proteins were resolved by SDS-PAGE and immunoblotted with indicated antibodies. The antigen-antibody complex was visualized and quantitated using an Odyssey system (LI-COR, Lincoln, Nebr., USA).

[2] = system: B-raf V600E in melanoma cell line A375; details: cited from earlier work
[3] = system: B-raf mutants in COS cells; details: cited from earlier work
HTC-C3 = assay: Cell viability assay (Cell Titer-Glo), HTC-C3; type: cell-based; details: Homo sapiens; HTC-C3, carcinoma, BRAF V600E; read-out: Ganetespib IC50
Procedure: (§3) Cell viability was measured using the Cell Titer-Glo assay (Promega). In brief, cells were plated in 96-well plates in triplicate at optimal seeding density (determined empirically for each cell line) and incubated at 37° C., 5% CO2 atmosphere for 24 hr prior to the addition of drug or vehicle (0.3% DMSO) to the culture medium. At the end of the assay, Cell Titer-Glow was added to the wells per manufactures recommendation, shaken for two minutes and incubated for 10 minutes at room temperature. Luminescence (0.1 sec) was measured with a Victor II microplate reader (Perkin Elmer) and the resulting data were used to calculate cell viability, normalized to vehicle control.

DBTRG-05MG = assay: Cell viability assay (Cell Titer-Glo), DBTRG-05MG; type: cell-based; details: Homo sapiens, glioma, BRAF V600E, read-out: Ganetespib IC50
Procedure: as §3

A375 = assay: Cell viability assay (Cell Titer-Glo), A375; type: cell-based; details: Homo sapiens, A-375; A375, malignant melanoma, BRAF V600E; read-out: Ganetespib IC50
Procedure: as §1, §3

SK-HEP-1 = assay: Cell viability assay (Cell Titer-Glo), SK-HEP-1; type: cell-based; details: Homo sapiens, SK-HEP1; SK-HEP-1, carcinoma, BRAF V600E; read-out: Ganetespib IC50
Procedure: as §3

RKO = assay: Cell viability assay (Cell Titer-Glo), RKO; type: cell-based; details: Homo sapiens, carcinoma, BRAF V600E, read-out: Ganetespib IC50
Procedure: as §3

SW982 = assay: Cell viability assay (Cell Titer-Glo), SW982; type: cell-based; details: Homo sapiens; SW982, synovial sarcoma, BRAF V600E; read-out: Ganetespib IC50
Procedure: as §3

LS-411N = assay: Cell viability assay (Cell Titer-Glo), LS-411N; type: cell-based; details: Homo sapiens, carcinoma, BRAF V600E, read-out: Ganetespib IC50
Procedure: as §3

A101D = assay: Cell viability assay (Cell Titer-Glo), A101D; type: cell-based; details: Homo sapiens, malignant melanoma, BRAF V600E, read-out: Ganetespib IC50
Procedure: as §3

K5 = assay: Cell viability assay (Cell Titer-Glo), K5; type: cell-based; details: Homo sapiens; K5, carcinoma, BRAF V600E; read-out: Ganetespib IC50
Procedure: as §3

RPMI-7951 melanoma cells [4] = assay: Cell viability assay, RPMI-7951 melanoma cells; type: cell-based; details: Homo sapiens; RPMI-7951 cells; read-out: IC90 cell killing
Procedure: as §1, §3

MMAC-SF = assay: Cell viability assay (Cell Titer-Glo), MMAC-SF; type: cell-based; details: Homo sapiens, malignant melanoma, BRAF V600E, read-out: Ganetespib IC50
Procedure: as §3

UACC-257 = assay: Cell viability assay (Cell Titer-Glo), UACC-257; type: cell-based; details: Homo sapiens; UACC-257, malignant melanoma, BRAF V600E; read-out: Ganetespib IC50
Procedure: as §3

RVH-421 = assay: Cell viability assay (Cell Titer-Glo), RVH-421; type: cell-based; details: Homo sapiens; RVH-421, malignant melanoma, BRAF V600E; read-out: Ganetespib IC50
Procedure: as §3

SH-4 = assay: Cell viability assay (Cell Titer-Glo), SH-4; type: cell-based; details: Homo sapiens; SH-4, malignant melanoma, BRAF V600E; read-out: Ganetespib IC50
Procedure: as §3

MZ7-mel = assay: Cell viability assay (Cell Titer-Glo), MZ7-mel; type: cell-based; details: Homo sapiens, malignant melanoma, BRAF V600E, read-out: Ganetespib IC50
Procedure: as §3

SK-MEL-28 melanoma cells = assay: Western blotting, SK-MEL-28 cells; type: cell-based, human; details: SK-MEL-28, 24 hr, western blot, FIG. 1
Procedure: as §1, §2

IST-MEL1 = assay: Cell viability assay (Cell Titer-Glo), IST-MEL1; type: cell-based; details: Homo sapiens; IST-MEL1, malignant melanoma, BRAF V600E; read-out: Ganetespib IC50
Procedure: as §3

HT-144 = assay: Cell viability assay (Cell Titer-Glo), HT-144; type: cell-based; details: Homo sapiens; HT-144, malignant melanoma, BRAF V600E; read-out: Ganetespib IC50
Procedure: as §3

[5] = system: human cancer cells harboring the V600E mutation in BRAF; assay: Cell viability, panel of BRAF mutant cancer cell lines; type: cell-based; details: large panel of human cancer cells harboring BRAF V600E; read-out: IC50 across panel
Procedure: as §3

A375 melanoma cells = assay: Western blotting, A375 cells; type: cell-based, human; details: A375, 24 hr, western blot
Procedure: as §1, §2

SW872 = assay: Cell viability assay (Cell Titer-Glo), SW872; type: cell-based; details: Homo sapiens; SW872, liposarcoma, BRAF V600E; read-out: Ganetespib IC50
Procedure: as §3

SK-MEL-5 = assay: Cell viability assay (Cell Titer-Glo), SK-MEL-5; type: cell-based; details: Homo sapiens; SK-MEL-5, malignant melanoma, BRAF V600E; read-out: Ganetespib IC50
Procedure: as §3

COLO-829 = assay: Cell viability assay (Cell Titer-Glo), COLO-829; type: cell-based; details: Homo sapiens; COLO-829, malignant melanoma, BRAF V600E; read-out: Ganetespib IC50
Procedure: as §3

ACN = assay: Cell viability assay (Cell Titer-Glo), ACN; type: cell-based; details: Homo sapiens, neuroblastoma, BRAF V600E, read-out: Ganetespib IC50
Procedure: as §3

SMILES: Cn1cnc2c(F)c(Nc3ccc(Br)cc3Cl)c(C(=O)NOCCO)cc21 [AZD6244, reference compound]
- suppression of ERK phosphorylation (RPMI-7951 melanoma cells [1]; RPMI-7951 (overexpress COT), 24 hr): neither the MEK inhibitor AZD6244 nor the BRAF inhibitor PLX-4032 were capable of suppressing ERK phosphorylation

SMILES: C=CCNC1=C2C[C@@H](C)C[C@H](OC)[C@H](O)[C@@H](C)/C=C(\C)[C@H](OC(N)=O)[C@@H](OC)/C=C\C=C(/C)C(=O)NC(=CC1=O)C2=O [Compound 17AAG]
- B-raf degradation rate versus wild type B-raf CHL cells [2]: degraded more rapidly
- degradation of B-raf mutants E586K and L597V ([3]; cells treated with 17AAG): not sensitive to degradation
- degradation of B-raf mutants V600D, G469A, G469E, G596R, G466V, G594V ([3]; transvected into COS cells, versus wild type B-raf): degraded more rapidly than wild type B-raf

SMILES: CC(C)c1cc(-c2nnc(O)n2-c2ccc3c(ccn3C)c2)c(O)cc1O [Ganetespib, 3-(2,4-DIHYDROXY-5- ISOPROPYL-PHENYL)-4-(1- METHYL-INDOL-5-YL)-5- HYDROXY-[1,2,4]TRIAZOLE]
- IC50 (HTC-C3): 0.021 µM
- IC50 (DBTRG-05MG): 0.014 µM
- IC50 (A375): 0.02 µM
- IC50 (SK-HEP-1): 0.009 µM
- IC50 (RKO): 0.004 µM
- IC50 (SW982): 0.01 µM
- IC50 (LS-411N): 0.005 µM
- IC50 (A101D): 0.009 µM
- IC50 (K5): 0.011 µM
- IC90 (RPMI-7951 melanoma cells [4]): 0.01 µM
- IC50 (MMAC-SF): 0.031 µM
- IC50 (UACC-257): 0.024 µM
- IC50 (RVH-421): 0.026 µM
- IC50 (SH-4): 0.012 µM
- IC50 (MZ7-mel): 0.026 µM
- MEK and ERK activity (SK-MEL-28 melanoma cells): loss of MEK and ERK activity
- destabilizing mutant BRAF (SK-MEL-28 melanoma cells): fully capable of destabilizing mutant BRAF
- IC50 (IST-MEL1): 0.004 µM
- IC50 (HT-144): 0.006 µM
- IC50 [5]: 0.004 to 0.04 µM
- AKT activity (RPMI-7951 melanoma cells [1]; RPMI-7951, 24 hr): effectively inhibited
- MEK and ERK activity (RPMI-7951 melanoma cells [1]; RPMI-7951, 24 hr): effectively inhibited
- MEK and ERK activity (A375 melanoma cells; FIG. 1): loss of MEK and ERK activity
- destabilizing mutant BRAF (A375 melanoma cells; FIG. 1): fully capable of destabilizing mutant BRAF
- Cdc2 stability (A375 melanoma cells; FIG. 2): destabilized Cdc2
- PI3K and mTOR-mediated phosphorylation of AKT and 4EBP1 (A375 melanoma cells; FIG. 2): suppressed
- apoptosis as determined by PARP cleavage (A375 melanoma cells; FIG. 2): resulting in apoptosis
- destabilization of BRAF dimerization partner CRAF (A375 melanoma cells; FIG. 3): able to destabilize
- potency in deactivating/dephosphorylating ERK versus PLX-4032 or AZD6244 (A375 melanoma cells; FIG. 3): greater potency
- IC50 (SW872): 0.022 µM
- IC50 (SK-MEL-5): 0.018 µM
- IC50 (COLO-829): 0.005 µM
- IC50 (ACN): 0.004 µM
